From publication PMC4899283 (Structure (London, England : 1993), 2016)

How the values were obtained:
[1] = target: T1, full-length bcMalT (EIIB and EIIC domains) (Bacillus cereus, UniProt Q63GK8); test: scintillation proximity assay, competition with [3H]maltose; type: binding; conditions: 1 μM [3H]maltose, 4 mM LDAO, pH 7.5, 150 mM NaCl, 4 °C; homologous competition
T1 sequence (Q63GK8 1-545): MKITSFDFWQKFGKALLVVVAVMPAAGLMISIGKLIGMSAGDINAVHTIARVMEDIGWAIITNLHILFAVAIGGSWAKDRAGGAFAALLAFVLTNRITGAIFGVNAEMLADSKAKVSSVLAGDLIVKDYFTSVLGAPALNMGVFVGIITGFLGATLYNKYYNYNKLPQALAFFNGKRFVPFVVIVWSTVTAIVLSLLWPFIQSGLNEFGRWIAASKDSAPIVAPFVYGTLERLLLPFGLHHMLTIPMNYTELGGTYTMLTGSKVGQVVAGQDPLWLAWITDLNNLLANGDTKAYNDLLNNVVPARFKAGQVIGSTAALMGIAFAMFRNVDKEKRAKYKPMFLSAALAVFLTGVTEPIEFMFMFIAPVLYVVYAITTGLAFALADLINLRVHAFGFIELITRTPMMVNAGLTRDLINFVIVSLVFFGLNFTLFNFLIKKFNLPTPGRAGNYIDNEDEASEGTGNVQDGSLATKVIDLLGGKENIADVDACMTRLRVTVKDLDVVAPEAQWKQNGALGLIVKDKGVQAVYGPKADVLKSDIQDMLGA

[2] = target: T1, full-length bcMalT (EIIB and EIIC domains); test: as above; type: binding; conditions: 1 μM [3H]maltose, 4 mM LDAO, pH 7.5, 150 mM NaCl, 4 °C

Row | Structure (SMILES) | IC50 [1] [µM] | binding competition at 500 μM [2]
1 | OC[C@H]1O[C@H](O[C@H]2[C@H](O)[C@@H](O)C(O)O[C@@H]2CO)[C@H](O)[C@@H](O)[C@@H]1O (some centres unmarked) [maltose] | 4.5 ± 1.1 | 
2 | OC[C@H]1O[C@@](CO)(O[C@H]2O[C@H](CO)[C@@H](O)[C@H](O)[C@H]2O)[C@@H](O)[C@@H]1O [sucrose] |  | No significant binding was observed for a number of other sugars tested, with the exception of sucrose
